In publication PMC10216478, “Development of a Non-Peptide Angiotensin II Type 1 Receptor Ligand by Structural Modification of Olmesartan as a Biased Agonist” (Biomedicines, 2023):
Substitutions are numbered along the chain they refer to.

Legend:
Conditions in all cases: competition with 125I-[Sar1,Ile8]Ang II, n = 3, mean ± standard error, read-out: Binding affinity (Kd)
AT1 N295A receptor = molecular target: T1, AT1 N295A receptor (Rattus norvegicus, UniProt P25095, N295A); experiment: Competition binding study, 125I-[Sar1,Ile8]Ang II, AT1 N295A receptor
T1 construct: expressed in transfected cells; host or cells: COS7
T1 sequence (P25095 1-359 N295A): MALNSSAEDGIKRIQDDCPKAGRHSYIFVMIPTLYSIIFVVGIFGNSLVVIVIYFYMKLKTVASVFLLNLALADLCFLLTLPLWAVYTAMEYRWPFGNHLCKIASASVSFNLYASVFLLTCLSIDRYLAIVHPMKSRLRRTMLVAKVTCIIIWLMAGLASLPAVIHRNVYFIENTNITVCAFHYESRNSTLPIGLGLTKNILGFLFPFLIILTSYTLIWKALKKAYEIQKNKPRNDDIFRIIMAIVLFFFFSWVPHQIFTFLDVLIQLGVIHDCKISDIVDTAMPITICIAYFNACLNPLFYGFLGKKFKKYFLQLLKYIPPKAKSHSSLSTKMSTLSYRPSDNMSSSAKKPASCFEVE
Text: (§1) We mutated four amino acids in transmembrane (TM) III, VI, and VII in the AT1 receptor (L112A, Q257A, Y292A, and N295A receptors). We determined the mutation sites of the AT1 receptor according to ARB, which produced olmesartan derivatives with different interactions and functions toward the AT1 receptor, as previously reported by Zhang et al., since the additional 4-hydroxybenzyl groups of R781253 and R794847 were predicted to extend to a sub-pocket on the bottom of the AT1 receptor ligand-binding pocket consisting of Leu^112 and Gln^257. In addition, since the biased ligand TRV027 induced changes near the NPxxY motif in TM domain 7 that are related to receptor activation, Tyr^292 and Asn^295 in the AT1 receptor were mutated.
(§2) The synthetic rat AT1 receptor gene, which was cloned in the shuttle expression vector pMT-2, was used for expression and mutagenesis, as described previously. COS7 cells (No. CRL-1651, ATCC, Manassas, VA, USA) were cultured in 10% fetal bovine serum (FBS) and penicillin- and streptomycin-supplemented Dulbecco’s modified Eagle’s essential medium (PS-DMEM) in 5% CO2 at 37 °C. In the experiments, cells were grown without a cell-growth supplement. To express the AT1 receptor protein, 10 µg of purified plasmid DNA per 10^7 cells was used in the transfection. Wild-type and mutated AT1 receptors were transiently transfected into cells using Lipofectamine 2000 liposomal reagent (Roche Applied Science, Penzberg, Germany). Cells were plated and grown and were 70–90% confluent at the time of transfection. We incubated plasmid DNA (10 µg)–lipid (10 µL) complexes for 5 min at room temperature and added and incubated the complexes with cells for 24 h. We then analyzed the parameters in transfected cells. Cell viability was >95% according to trypan blue exclusion analysis in the control experiments. Transfected cells that had been cultured for 48–72 h were harvested. Cell membranes were prepared using the nitrogen Parr bomb disruption or freeze–thaw methods.
(§3) The Kd (nM) values of receptor binding were determined with ^125I-[Sar^1, Ile^8]AngII-binding experiments under equilibrium conditions. Binding kinetics were determined following the methods described in the literature. We carried out binding by using ^125I-[Sar^1, Ile^8] AngII (2200 Ci/mmol) and an increasing concentration (10^−11–10^−5 M) of each unlabeled compound. Nonspecific binding of ^125I-[Sar^1, Ile^8] Ang II was determined in the presence of a high concentration (10^−6 M) of unlabeled [Sar^1, Ile^8]. Next, the incubation mixture was separated by vacuum filtration through Whatman GF/C glass filters (Disposable Filter Funnels Grade GF/C, GE Healthcare), and presoaked with 0.1% polyethylenimine. The filter was washed with 3 mL of ice-cold stop buffer (25 mM Tris–HCl, pH 7.4, 1 mM MgCl2). The radioactivity trapped on the filters was quantified using an automatic γ-counter. The percentage (%) of specific binding of ^125I-[Sar^1, Ile^8]Ang II was calculated using the following formula: 100 × (% total binding of ^125I-[Sar^1, Ile^8]Ang II—nonspecific binding of ^125I-[Sar^1, Ile^8]Ang II)/(% total binding of ^125I-[Sar^1, Ile^8]Ang II).

AT1 L112A receptor = molecular target: T2, AT1 L112A receptor (Rattus norvegicus, UniProt P25095, L112A); experiment: Competition binding study, 125I-[Sar1,Ile8]Ang II, AT1 L112A receptor
T2 construct: expressed in transfected cells; host or cells: COS7
T2 sequence (P25095 1-359 L112A): T1 sequence (P25095 1-359 N295A) with L112A, A295N
Text: as §1
(§4) The synthetic rat AT1 receptor gene, which was cloned in the shuttle expression vector pMT-2, was used for expression and mutagenesis, as described previously. COS7 cells (No. CRL-1651, ATCC, Manassas, VA, USA) were cultured in 10% fetal bovine serum (FBS) and penicillin- and streptomycin-supplemented Dulbecco’s modified Eagle’s essential medium (PS-DMEM) in 5% CO2 at 37 °C. In the experiments, cells were grown without a cell-growth supplement. To express the AT1 receptor protein, 10 µg of purified plasmid DNA per 10^7 cells was used in the transfection. […] We then analyzed the parameters in transfected cells. […]
(§5) The Kd (nM) values of receptor binding were determined with ^125I-[Sar^1, Ile^8]AngII-binding experiments under equilibrium conditions. Binding kinetics were determined following the methods described in the literature. […] Ang II was determined in the presence of a high concentration (10^−6 M) of unlabeled [Sar^1, Ile^8]. […] The radioactivity trapped on the filters was quantified using an automatic γ-counter. The percentage (%) of specific binding of ^125I-[Sar^1, Ile^8]Ang II was calculated using the following formula: 100 × (% total binding of ^125I-[Sar^1, Ile^8]Ang II—nonspecific binding of ^125I-[Sar^1, Ile^8]Ang II)/(% total binding of ^125I-[Sar^1, Ile^8]Ang II).

AT1 Y292A receptor = molecular target: T3, AT1 Y292A receptor (Rattus norvegicus, UniProt P25095, Y292A); experiment: Competition binding study, 125I-[Sar1,Ile8]Ang II, AT1 Y292A receptor
T3 construct: expressed in transfected cells; host or cells: COS7
T3 sequence (P25095 1-359 Y292A): T1 sequence (P25095 1-359 N295A) with Y292A, A295N
Text: as §1, §2, §3

AT1 wild-type receptor = molecular target: T4, AT1 wild-type receptor (Rattus norvegicus, UniProt P25095); experiment: Competition binding study, 125I-[Sar1,Ile8]Ang II, AT1 wild-type receptor
T4 construct: expressed in transfected cells; host or cells: COS7
T4 sequence (P25095 1-359): T1 sequence (P25095 1-359 N295A) with A295N
Procedure: as §4, §5

AT1 Q257A receptor = molecular target: T5, AT1 Q257A receptor (Rattus norvegicus, UniProt P25095, Q257A); experiment: Competition binding study, 125I-[Sar1,Ile8]Ang II, AT1 Q257A receptor
T5 construct: expressed in transfected cells; host or cells: COS7
T5 sequence (P25095 1-359 Q257A): T1 sequence (P25095 1-359 N295A) with Q257A, A295N
Text: as §1, §2, §3

Kd (AT1 N295A receptor): 7 ± 2 nM | Kd (AT1 L112A receptor): 1.3 ± 0.3 nM | Kd (AT1 Y292A receptor): 2.1 ± 0.9 nM | Kd (AT1 wild-type receptor): 0.8 ± 0.4 nM | Kd (AT1 Q257A receptor): 3.3 ± 1.5 nM
SMILES: CC[C@H](C)[C@H](NC(=O)[C@@H]1CCCN1C(=O)[C@H](Cc1c[nH]cn1)NC(=O)[C@@H](NC(=O)[C@H](Cc1ccc(O)cc1)NC(=O)[C@@H](NC(=O)[C@H](CCCN=C(N)N)NC(=O)CNC)C(C)C)[C@@H](C)CC)C(=O)O [[Sar^1,Ile^8]Ang II, [Sar^1, Ile^8]Ang II, reference compound]
